Reference: patent publication US7960394B2, “Quinazoline derivative” (Banyu Pharmaceutical Co., Ltd., priority 2004, dated 2011)
Where two headings read alike, the source gives them in different places.

Key:
[1] = Brain/cerebrospinal fluid migration test; format: in vivo, SD male rats; details: rat; for concentration at 2 h / concentration at 30 min: male, SD
Method: A test compound was orally or intravenously administered to SD male rats (7 to 10 week-age, 200 to 400 g). While they were anesthetized with ether for a predetermined period of time, the whole blood was collected from them via their abdominal aorta, using a heparin-processed syringe. Then, their occipital skin was cut open, and a dental 30 G needle was stuck into the cervical vertebrae and further into the subarachnoid cavity. Via the tube connected to the dental 30 G needle, from 50 to 100 μL of the cerebrospinal fluid was collected in a 1 mL-syringe, and then the brain was taken out. The blood sample was centrifuged (4° C., 6000 rpm, 10 min), and the resulting plasma was stirred with ethanol of three times (including an internal standard substance) added thereto. The brain sample was homogenized with 2 mL of water added thereto, and a part of it was taken out and stirred with ethanol of three times (including an internal standard substance) added thereto. The cerebrospinal fluid was homogenized with 3 times its volume of ethanol (including an internal standard substance) added thereto. The above samples were left at −20° C. for 20 minutes, then centrifuged (4° C., 12,000 g, 10 min), and the supernatant was analyzed through LC/MS/MS. According to a relative calibration curve method, the concentration of the test compound in the plasma, in the brain and in the cerebrospinal fluid was determined.

[2] = biological target: T1, human histamine-3 receptor (Homo sapiens, UniProt Q9Y5N1); assay: Histamine analogue-binding inhibition test ([3H]N-α-methylhistamine, membrane specimen); details: result in words
T1 construct: expressed in transfected cells; host or cells: HEK293 and CHO-K1 (American Type Culture Collection)
T1 sequence (Q9Y5N1 whole entry): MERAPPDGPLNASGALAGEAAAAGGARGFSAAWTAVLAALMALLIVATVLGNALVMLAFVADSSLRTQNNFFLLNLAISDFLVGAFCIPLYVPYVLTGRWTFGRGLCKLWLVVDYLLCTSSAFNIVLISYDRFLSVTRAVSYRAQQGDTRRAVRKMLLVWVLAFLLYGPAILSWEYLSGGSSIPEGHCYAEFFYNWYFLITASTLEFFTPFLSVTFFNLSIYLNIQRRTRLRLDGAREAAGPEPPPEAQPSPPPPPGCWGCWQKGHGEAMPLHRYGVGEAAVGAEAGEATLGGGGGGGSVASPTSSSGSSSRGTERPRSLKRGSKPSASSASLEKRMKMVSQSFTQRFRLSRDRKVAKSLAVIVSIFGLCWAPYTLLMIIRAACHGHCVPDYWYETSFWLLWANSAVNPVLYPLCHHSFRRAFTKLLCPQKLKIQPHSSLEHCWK
Method: A membrane specimen prepared from the cells having expressed a histamine-3 receptor was incubated in an assay buffer (50 mM Tris buffer, pH 7.4) along with a test compound and 20,000 cpm [^3H]N-α-methylhistamine (by NEN) therein, at 25° C. for 2 hours, and then filtered through a glass filter GF/C. After washed with 50 mM Tris buffer (pH 7.4), the radioactivity on the glass filter was determined. The non-specific binding was determined in the presence of 10 μM thioperamide (by Sigma), and the 50% inhibitory concentration (IC50) of the test compound to the specific N-α-methylhistamine binding was calculated [see Molecular Pharmacology, Vol. 55, p.

`COc1ccnc2c(=O)n(C)c(-c3ccc(OC4CCN(C5CCC5)CC4)cc3)nc12` [Example 59, 2-{4-[(1-cyclobutylpiperidin-4-yl)oxy]phenyl}-8-methoxy-3-methylpyrido[3,2-d]pyrimidin-4(3H)-one] gave a melting point of 182.2 to 205.2 °C.

With `Cn1c(-c2ccc(OC3CCN(C4CC4)CC3)cc2)nc2ccccc2c1=O` [Example 89, 3-Methyl-2-[4-(1-cyclopropyl-4-piperidinyloxy)-phenyl]-4(3H)-quinazolinone] the concentration at 2 h ([1]; cerebrospinal fluid, oral administration 10 mg/kg, in 2 hours, read-out: concentration in the cerebrospinal fluid) was 27 nM, the concentration at 2 h ([1]; plasma, oral administration 10 mg/kg, in 2 hours, read-out: concentration in the plasma) was 700 nM and the “concentration in the brain” value ([1]; oral administration 10 mg/kg, in 2 hours) was 1.45 nmol/g.

In the case of `Cn1c(-c2ccc(OCCCN3CCCC3)cc2)nc2ccccc2c1=O` [Example 16, 3-Methyl-2-[4-(3-pyrrolidin-1-ylpropoxy)phenyl]-4(3H)-quinazoline], the concentration at 30 min ([1]; cerebrospinal fluid, intravenous administration 3 mg/kg, in 30 minutes, read-out: concentration in the cerebrospinal fluid) is reported as 134 nM, the concentration at 30 min ([1]; plasma, intravenous administration 3 mg/kg, in 30 minutes, read-out: concentration in the plasma) is reported as 1360 nM and the “concentration in the brain” value ([1]; intravenous administration 3 mg/kg, in 30 minutes) is reported as 2.22 nmol/g. The “inhibition of the binding of N-alpha-methylhistamine (histamine analogue) to histamine-H3 receptor” value [2] was “strongly inhibited”.
